Patent US11958868B2, “Methods of using metal complexes to promote wound healing” (University of Macau, priority 2022, dated 2024)

Columns and labels:
[1] = system: full-thickness skin wounds in high-fat diet-fed, streptozotocin-treated diabetic mice (HFD/STZ); conditions: 1.25 mg/kg i.p. every other day
Description: (§1) The db/db and age-matched wide-type (WT) mice were locally administered with vehicle (0.8% w/v Carbopol 974P NF in distilled water, pH 7.0) and 0.25 mg/mL complex 1a (mixed in 0.8% w/v Carbopol 974P NF in distilled water) every other day for 8 days, respectively (FIG. 4a). […] STZ mice were obtained by a single injection of high-dose streptozotocin (150 mg/kg) (Supplementary FIG. 10a). HFD/STZ mice were generated by 8 weeks high-fat diet feeding, followed by low-dose streptozotocin injection for 7 days (40 mg/kg/day) (Supplementary FIG. 11a). 3 days after streptozotocin injection, STZ or HFD/STZ mice with fasting blood glucose levels between 15 and 28 mmol/L were considered as diabetic mice and used in wound healing experiments. STZ and HFD/STZ mice were intraperitoneally injected with either vehicle (PEG 400: distilled water=6:4, v/v) or 1.25 mg/kg complex 1a every other day for 8 days, respectively.
(§2) In the wound healing experiment, two full-thickness skin lesions were excised in interscapular area of each mouse, and the wound area was monitored every other day.
(§3) Male db/db mice were purchased from the Model Animal Research Center of Nanjing University (Nanjing, China). Male C57BL/6J mice were purchased from the animal facility of Faculty of Health Sciences, University of Macau.

[2] = system: full-thickness skin wounds in leptin-receptor deficient (db/db) diabetic mice; conditions: 0.25 mg/mL topical every other day
Description: as §1, §2, §3

VHL-HIF-1α interaction = target: T1, VHL-HIF-1α interaction (Homo sapiens, UniProt P40337); assay: Co-immunoprecipitation of hydroxy-HIF-1α with VHL in HEK293 cells; type: cell-based; conditions: HEK293 cells, 0.3, 1, 3, 6 and 9 μM for 2 h
T1 construct: endogenous in cells; host or cells: HEK293
T1 sequence (P40337 whole entry): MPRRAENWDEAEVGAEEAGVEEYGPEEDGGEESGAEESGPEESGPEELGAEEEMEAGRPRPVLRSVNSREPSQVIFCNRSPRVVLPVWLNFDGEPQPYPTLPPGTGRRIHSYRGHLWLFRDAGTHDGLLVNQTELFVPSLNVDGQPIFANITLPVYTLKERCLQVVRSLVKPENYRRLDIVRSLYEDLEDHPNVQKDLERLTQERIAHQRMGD
T1 sequence (Q15370 whole entry partner): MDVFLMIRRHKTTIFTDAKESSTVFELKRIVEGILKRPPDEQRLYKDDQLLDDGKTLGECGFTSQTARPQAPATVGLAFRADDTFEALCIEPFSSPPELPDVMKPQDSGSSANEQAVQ
T1 sequence (Q15369 whole entry partner): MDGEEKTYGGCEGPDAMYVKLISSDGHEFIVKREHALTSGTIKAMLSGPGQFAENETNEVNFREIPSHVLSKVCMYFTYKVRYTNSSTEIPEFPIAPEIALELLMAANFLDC
Description: HEK293 cells were treated with vehicle DMSO (1% for 2 h), 1a (0.3, 1, 3, 6 and 9 μM for 2 h), VH298 (100 μM for 2 h), MG132 (20 μM for 3 h), or FG-4592 (100 μM for 2 h) before lysis. Cell lysates were collected and incubated with VHL antibody overnight at 4° C. The proteins were immunoprecipitated using agarose beads. The levels of hydroxy-HIF-1α co-precipitated with VHL were detected using a hydroxy-HIF-1α antibody, and then visualized using ECL Western Blotting Detection Reagent (GE Healthcare). (B) Cellular thermal shift assays to monitor cellular target engagement of VHL and HIF-1α. HEK293 cell lysates were treated with 1a (3 μM) at room temperature for 30 min and then heated at different temperature ranging from 48° C. to 68° C. for 5 min. The protein samples were collected and detected by Western blotting using either VHL or PHD2 antibodies. (C) Fluorescence-based protein thermal shift assay of VBC in the presence or absence of VH298 (100 μM) and complex 1a (100 μM). (D) ITC titration of complex 1a (300 μM) into recombinant VHL protein (30 μM). ITC experiments were carried in a MicroCal PEAQ-ITC Isothermal Titration Calorimeter (Malvern Panalytical). […] Data are expressed as means±SD (n=3 independent experiments for figures a and b, samples for figures c and e), P values were calculated using a two-sided t-test. *P<0.05, **P<0.01 vs. DMSO group. […]

[3] = system: HIF-1α activation of the HRE-driven reporter; assay: Dual luciferase reporter assay (HRE-driven luciferase activity); type: cell-based, Human; conditions: HEK293 cells, 8 h
Description: A library of cyclometalated Ir(III)/Rh(III) metal complexes 1-14 (as racemates) with diverse structures were selected for initial screening, in order to identify favorable substructures for the design of the next round of complexes (FIG. 1a). In cells, HIF-1α moves into the nucleus and binds to the hypoxia-response element (HRE) in the promoters of transactivated genes. In this study, the dual luciferase reporter assay (DLR) was performed to monitor the variations of HRE-driven luciferase activity induced by the complexes (FIG. 1f). Human embryonic kidney HEK293 cells were treated with complexes (10 μM) for 8 h, and the HRE-driven luciferase activity of the cell lysates was determined. Complexes that inhibit the interaction between VHL and HIF-1α would be expected to increase the level of HRE-driven luciferase activity in the cell lysates.
HEK293 cells were seeded in six well plates 24 h before transfection. HRE-luciferase plasmid (4 μg) and pRL-TK plasmid (4 μg) and TurboFect reagent (6 μL) were mixed together in serum-free DMEM medium and the resulting solution was incubated for 20 min at room temperature. The mixture was the added dropwise to the HEK293 cells in the wells. The cells were incubated for 32 h at 37° C. in a CO2 incubator before use.
The inhibition of HIF-1α activity was assayed by a reporter assay using a dual luciferase reporter assay system (Promega, Madison, WI, USA). Transiently transfected cells were treated with complexes or P1 for 8 h before measurement. Luciferase activity was integrated over a 10 second period and measured using a spectrophotometer (Spectra-max M5, Molecular Devices, USA). The results were standardization with the activity of Renilla luciferase. All data are expressed as means±SD.

[4] = system: full-thickness skin wounds in WT/NC mice; assay: Skin wound model in normal (WT/NC) mice; type: in vivo
Source text: The mice were maintained for 3 days. […] All experiments complied with all relevant ethical regulations.
Mice were anesthetized by inhalation of 3% isoflurane.

COc1cc[n+]2c3c1ccc1c(OC)cc[n+](c13)[Ir-3]213([c]2ccccc2-c2cccc[n+]21)[c]1ccccc1-c1cccc[n+]13.F[P-](F)(F)(F)(F)F [1a]
Rate of wound closure, HFD/STZ mice, 4 days ([1]; 4 days post-injury): 62%
Rate of wound closure, HFD/STZ mice, 8 days ([1]; 8 days post-injury): 82%
Rate of wound closure, db/db mice, 4 days ([2]; 4 days post-injury): about 28%
Rate of wound closure, db/db mice, 8 days ([2]; 8 days post-injury): ~40%
Amount of HIF-1α-OH co-precipitating with VHL (VHL-HIF-1α interaction): reduced the amount of HIF-1α-OH co-precipitating with VHL in a dose-dependent manner
HRE-driven luciferase activity compared to positive control P1 (and parent complex 1) [3]: about twice as potent as both the parent complex 1 as well as the positive control compound P1
HRE-driven luciferase activity, second round of screening ([3]; complexes 1a-1n, ranking and comparison in words): highest activation of HRE-drive luciferase activity
Dose-response of HRE-driven luciferase activity ([3]; indicated concentrations): dose-dependent activation of HRE-driven luciferase activity
Rate of wound closure, NC mice, 4 days ([4]; NC, 1.25 mg/kg i.p., 4 days): ~65%
Rate of wound closure, WT mice, 4 days ([4]; WT, 0.25 mg/mL topical, 4 days): about 64%
Wound closure, WT/NC mice, 8 days ([4]; WT/NC, 8 days): almost complete wound closure
